Experimental data taken from PubChem BioAssay AID1918954 (Molecular Pharmacology Branch, DTP, NCI, 2023).

Tested on: MDA-MB-468 complex spheroids with HUVEC/MSC, viability
Assay: Anticancer human tumor MDA-MB-468 cell line growth inhibition;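 note: spheroids exposed to agents for seven days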;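 for viability, T/C: 100% = DMSO vehicle control viability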
Details: for IC50: curve of first compound; for viability, T/C: stronger effect = lower value; active = viability on the fitted dose curve at most 10% of control; inactive = the rest
Method in brief: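 Drug combinations with the LSD1 inhibitor iadademstat tested on tumor cells co-cultured as spheroids with endothelial cells and mesenchymal stem cells. Concentrations descended in half-log increments from clinical Cmax or 10 microM.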

[1] = second compound 0.1 µM, first compound 0.0316 µM
[2] = second compound 0.1 µM, first compound 0.1 µM
[3] = second compound 0.1 µM, first compound 0.316 µM
[4] = second compound 0.1 µM, first compound 1 µM
[5] = second compound 0.1 µM, first compound 3.16 µM
[6] = second compound 0.1 µM, first compound 10 µM
[7] = second compound 0.316 µM, first compound 0.0316 µM
[8] = second compound 0.316 µM, first compound 0.1 µM
[9] = second compound 0.316 µM, first compound 0.316 µM
[10] = second compound 0.316 µM, first compound 1 µM
[11] = second compound 0.316 µM, first compound 3.16 µM
[12] = second compound 0.316 µM, first compound 10 µM
[13] = second compound 1 µM, first compound 0.0316 µM
[14] = second compound 1 µM, first compound 0.1 µM
[15] = second compound 1 µM, first compound 0.316 µM
[16] = second compound 1 µM, first compound 1 µM
[17] = second compound 1 µM, first compound 3.16 µM
[18] = second compound 1 µM, first compound 10 µM
[19] = second compound 3.16 µM, first compound 0.0316 µM
[20] = second compound 3.16 µM, first compound 0.1 µM
[21] = second compound 3.16 µM, first compound 0.316 µM
[22] = second compound 3.16 µM, first compound 1 µM
[23] = second compound 3.16 µM, first compound 3.16 µM
[24] = second compound 3.16 µM, first compound 10 µM
[25] = second compound 10 µM, first compound 0.0316 µM
[26] = second compound 10 µM, first compound 0.1 µM
[27] = second compound 10 µM, first compound 0.316 µM
[28] = second compound 10 µM, first compound 1 µM
[29] = second compound 10 µM, first compound 3.16 µM
[30] = second compound 10 µM, first compound 10 µM
[31] = second compound 0.1 µM, first compound 0.00316 µM
[32] = second compound 0.1 µM, first compound 0.01 µM
[33] = second compound 0.316 µM, first compound 0.00316 µM
[34] = second compound 0.316 µM, first compound 0.01 µM
[35] = second compound 1 µM, first compound 0.00316 µM
[36] = second compound 1 µM, first compound 0.01 µM
[37] = second compound 3.16 µM, first compound 0.00316 µM
[38] = second compound 3.16 µM, first compound 0.01 µM
[39] = second compound 10 µM, first compound 0.00316 µM
[40] = second compound 10 µM, first compound 0.01 µM

CC(C)c1c(-c2ccccc2)nc2c(C#N)c[nH]n2c1=O + NC1CC1c1ccc(-c2cccc(O)c2)cc1
inactive: viability, T/C [1] 91.7% | viability, T/C [2] 89.1% | viability, T/C [3] 94.4% | viability, T/C [4] 96% | viability, T/C [5] 96.7% | viability, T/C [6] 84.1% | viability, T/C [7] 89.2% | viability, T/C [8] 82.6% | viability, T/C [9] 92.5% | viability, T/C [10] 91.4% | viability, T/C [11] 89.4% | viability, T/C [12] 87.9% | viability, T/C [13] 89.1% | viability, T/C [14] 88% | viability, T/C [15] 86.7% | viability, T/C [16] 102% | viability, T/C [17] 89.7% | viability, T/C [18] 79.5% | viability, T/C [19] 102% | viability, T/C [20] 83.5% | viability, T/C [21] 87.6% | viability, T/C [22] 88.2% | viability, T/C [23] 81.3% | viability, T/C [24] 74.7% | viability, T/C [25] 66.7% | viability, T/C [26] 67% | viability, T/C [27] 59.3% | viability, T/C [28] 57.2% | viability, T/C [29] 67.1% | viability, T/C [30] 49.4%
> 10000 nM: IC50 (second compound 0.1 µM) | IC50 (second compound 0.316 µM) | IC50 (second compound 1 µM) | IC50 (second compound 3.16 µM) | IC50 (second compound 10 µM)

COc1ccc([C@@H](O)c2cc(-c3ncnc4cc(N5CCOCC5)ccc34)c(F)cc2Cl)nn1 + NC1CC1c1ccc(-c2cccc(O)c2)cc1
876 nM: IC50 (second compound 0.316 µM)
720 nM: IC50 (second compound 1 µM)
228 nM: IC50 (second compound 10 µM)
878 nM: IC50 (second compound 0.1 µM)
inactive: viability, T/C [1] 113% | viability, T/C [2] 103% | viability, T/C [3] 69.1% | viability, T/C [4] 47.4% | viability, T/C [5] 26.1% | viability, T/C [7] 107% | viability, T/C [8] 82.3% | viability, T/C [9] 69.8% | viability, T/C [10] 52.8% | viability, T/C [11] 25.9% | viability, T/C [13] 109% | viability, T/C [14] 109% | viability, T/C [15] 71.9% | viability, T/C [16] 39.6% | viability, T/C [17] 21% | viability, T/C [19] 102% | viability, T/C [20] 87.8% | viability, T/C [21] 73.4% | viability, T/C [22] 37.2% | viability, T/C [23] 21.5% | viability, T/C [25] 69.2% | viability, T/C [26] 59.8% | viability, T/C [27] 45.1% | viability, T/C [28] 33.2% | viability, T/C [29] 20.1%
701 nM: IC50 (second compound 3.16 µM)
active: viability, T/C [6] 6.17% | viability, T/C [12] 5.99% | viability, T/C [18] 5.38% | viability, T/C [24] 4.59% | viability, T/C [30] 2.86%

CC[C@@]1(O)C(=O)OCc2c1cc1n(c2=O)Cc2cc3c(CN(C)C)c(O)ccc3nc2-1 + NC1CCC(NC2CC2c2ccccc2)CC1
0.706 nM: IC50 (second compound 0.1 µM)
< 0.316 nM: IC50 (second compound 10 µM)
inactive: viability, T/C (second compound 0.1 µM, first compound 0.000316 µM) 78% | viability, T/C (second compound 0.1 µM, first compound 0.001 µM) 37.9% | viability, T/C [31] 13.1% | viability, T/C (second compound 0.316 µM, first compound 0.000316 µM) 83.4% | viability, T/C (second compound 0.316 µM, first compound 0.001 µM) 40.8% | viability, T/C [33] 12.7% | viability, T/C (second compound 1 µM, first compound 0.000316 µM) 89.1% | viability, T/C (second compound 1 µM, first compound 0.001 µM) 37.3% | viability, T/C [35] 12.6% | viability, T/C (second compound 3.16 µM, first compound 0.000316 µM) 64.5% | viability, T/C (second compound 3.16 µM, first compound 0.001 µM) 40% | viability, T/C [37] 15.2% | viability, T/C (second compound 10 µM, first compound 0.000316 µM) 49.7% | viability, T/C (second compound 10 µM, first compound 0.001 µM) 40.8% | viability, T/C [39] 14.1%
0.777 nM: IC50 (second compound 0.316 µM)
0.62 nM: IC50 (second compound 3.16 µM)
0.752 nM: IC50 (second compound 1 µM)
active: viability, T/C [32] 7.64% | viability, T/C [1] 6.65% | viability, T/C [2] 4.69% | viability, T/C [34] 8.5% | viability, T/C [7] 4.51% | viability, T/C [8] 4.68% | viability, T/C [36] 8.19% | viability, T/C [13] 6.26% | viability, T/C [14] 5.19% | viability, T/C [38] 11.4% | viability, T/C [19] 5.77% | viability, T/C [20] 6.13% | viability, T/C [40] 8.51% | viability, T/C [25] 6.13% | viability, T/C [26] 6.82%

COc1cc(C2c3cc4c(cc3C(OC3OC5COC(C)OC5C(O)C3O)C3COC(=O)C23)OCO4)cc(OC)c1O (stereo not given) + NC1CCC(NC2CC2c2ccccc2)CC1
76.6 nM: IC50 (second compound 3.16 µM)
52.6 nM: IC50 (second compound 10 µM)
93.1 nM: IC50 (second compound 0.316 µM)
active: viability, T/C (second compound 0.316 µM, first compound 3 µM) 9.23% | viability, T/C (second compound 1 µM, first compound 3 µM) 8.57%
inactive: viability, T/C (second compound 0.1 µM, first compound 0.00949 µM) 83.6% | viability, T/C (second compound 0.1 µM, first compound 0.03 µM) 91.3% | viability, T/C (second compound 0.1 µM, first compound 0.0949 µM) 51.6% | viability, T/C (second compound 0.1 µM, first compound 0.3 µM) 13.8% | viability, T/C (second compound 0.1 µM, first compound 0.949 µM) 10.8% | viability, T/C (second compound 0.1 µM, first compound 3 µM) 8.8% | viability, T/C (second compound 0.316 µM, first compound 0.00949 µM) 82.6% | viability, T/C (second compound 0.316 µM, first compound 0.03 µM) 72.3% | viability, T/C (second compound 0.316 µM, first compound 0.0949 µM) 51.2% | viability, T/C (second compound 0.316 µM, first compound 0.3 µM) 14.3% | viability, T/C (second compound 0.316 µM, first compound 0.949 µM) 12.5% | viability, T/C (second compound 1 µM, first compound 0.00949 µM) 90.7% | viability, T/C (second compound 1 µM, first compound 0.03 µM) 77.2% | viability, T/C (second compound 1 µM, first compound 0.0949 µM) 50.8% | viability, T/C (second compound 1 µM, first compound 0.3 µM) 13.8% | viability, T/C (second compound 1 µM, first compound 0.949 µM) 12.8% | viability, T/C (second compound 3.16 µM, first compound 0.00949 µM) 67.6% | viability, T/C (second compound 3.16 µM, first compound 0.03 µM) 68.2% | viability, T/C (second compound 3.16 µM, first compound 0.0949 µM) 45.9% | viability, T/C (second compound 3.16 µM, first compound 0.3 µM) 15.5% | viability, T/C (second compound 3.16 µM, first compound 0.949 µM) 15.3% | viability, T/C (second compound 3.16 µM, first compound 3 µM) 8.59% | viability, T/C (second compound 10 µM, first compound 0.00949 µM) 55.5% | viability, T/C (second compound 10 µM, first compound 0.03 µM) 64.5% | viability, T/C (second compound 10 µM, first compound 0.0949 µM) 39.5% | viability, T/C (second compound 10 µM, first compound 0.3 µM) 17.1% | viability, T/C (second compound 10 µM, first compound 0.949 µM) 17.2% | viability, T/C (second compound 10 µM, first compound 3 µM) 11%
99.2 nM: IC50 (second compound 0.1 µM)
89.2 nM: IC50 (second compound 1 µM)

Nc1ncn(C2CC(O)C(CO)O2)c(=O)n1 (stereo not given) + NC1CCC(NC2CC2c2ccccc2)CC1
14.2 nM: IC50 (second compound 0.1 µM)
5.55 nM: IC50 (second compound 10 µM)
active: viability, T/C [3] 9.84% | viability, T/C [4] 8.86% | viability, T/C [10] 10.2% | viability, T/C [28] 10.1%
9.71 nM: IC50 (second compound 0.316 µM)
inactive: viability, T/C [31] 88.4% | viability, T/C [32] 59.4% | viability, T/C [1] 28.7% | viability, T/C [2] 14.2% | viability, T/C [33] 84.6% | viability, T/C [34] 48.6% | viability, T/C [7] 28.1% | viability, T/C [8] 15.6% | viability, T/C [9] 9.97% | viability, T/C [35] 83% | viability, T/C [36] 54.9% | viability, T/C [13] 27.5% | viability, T/C [14] 15.4% | viability, T/C [15] 11.1% | viability, T/C [16] 10.6% | viability, T/C [37] 67.7% | viability, T/C [38] 53.4% | viability, T/C [19] 28.2% | viability, T/C [20] 15.5% | viability, T/C [21] 11.3% | viability, T/C [22] 9.32% | viability, T/C [39] 57.4% | viability, T/C [40] 42.2% | viability, T/C [25] 24.4% | viability, T/C [26] 14.4% | viability, T/C [27] 10.6%
12.3 nM: IC50 (second compound 1 µM)
11.6 nM: IC50 (second compound 3.16 µM)
